Data set [1] has as its target T1, serotonin 5-HT2A receptor (Homo sapiens, UniProt P28223).
T1 construct: expressed in transfected cells; host or cells: HEK-293
Description: Radioligand binding assay, human recombinant receptor in HEK cells. Particulars: read-out: % Inhibition (mean) of control specific binding.

Another data set deals with T2, dopamine D1 receptor (Homo sapiens, UniProt P21728).
T2 construct: expressed in transfected cells; host or cells: CHO
Description: Radioligand binding assay, human recombinant receptor in CHO cells. The following applies: read-out: % Inhibition (mean) of control specific binding.

Data set [2] has as its target T3, serotonin transporter (SERT) (Homo sapiens, UniProt P31645).
T3 construct: expressed in transfected cells; host or cells: CHO
Description: Radioligand binding assay, human recombinant transporter in CHO cells. Particulars: read-out: % Inhibition (mean) of control specific binding.

Another data set has as its target T4, dopamine D2S receptor (Homo sapiens, UniProt P14416).
T4 construct: expressed in transfected cells; host or cells: HEK-293
Description: Radioligand binding assay, human recombinant receptor in HEK cells. The following applies: read-out: % Inhibition (mean) of control specific binding.

The conditions of data set [3]: rat, in vivo, po, 10 mg/kg.
Another data set in a line: in vivo. Particulars: rat.
Data set [4] deals with protein phosphorylation (ERK1, ERK2, Glul, NR2B and TH) in mice nucleus accumbens. The following applies: cited from earlier work.
Data set [5] concerns the target serotonin 5-HT2 receptor family. Particulars: mice, oral dosing, subcutaneous DOI; cited from earlier work.
A further data set relates to mouse formalin paw test. The following applies: subcutaneous paw pre-treatment 30 minutes prior to […] formalin, three doses; cited from earlier work.
Data set [6] deals with mouse marble-burying model for OCD. Particulars: positive control, after 30 minutes; cited from earlier work.
The test system of another data set is male Sprague-Dawley rats. The following applies: cited from earlier work; for tolerance during repeated dosing: subcutaneous dosing for 28 days, 0.3 and 3 mg/kg; for physical dependence upon cessation of dosing: withdrawal after 28 days subcutaneous dosing.

A word on the inhibition: it is the relative decrease from the control value, in per cent. One may read the AUC as the area under the concentration-time curve, a measure of exposure. Low values mean less exposure, high ones more exposure. As usually defined, the Cmax is the peak of the concentration-time curve. For orientation: Tmax means the time at which the peak concentration occurs.

T3 sequence (P31645 whole entry): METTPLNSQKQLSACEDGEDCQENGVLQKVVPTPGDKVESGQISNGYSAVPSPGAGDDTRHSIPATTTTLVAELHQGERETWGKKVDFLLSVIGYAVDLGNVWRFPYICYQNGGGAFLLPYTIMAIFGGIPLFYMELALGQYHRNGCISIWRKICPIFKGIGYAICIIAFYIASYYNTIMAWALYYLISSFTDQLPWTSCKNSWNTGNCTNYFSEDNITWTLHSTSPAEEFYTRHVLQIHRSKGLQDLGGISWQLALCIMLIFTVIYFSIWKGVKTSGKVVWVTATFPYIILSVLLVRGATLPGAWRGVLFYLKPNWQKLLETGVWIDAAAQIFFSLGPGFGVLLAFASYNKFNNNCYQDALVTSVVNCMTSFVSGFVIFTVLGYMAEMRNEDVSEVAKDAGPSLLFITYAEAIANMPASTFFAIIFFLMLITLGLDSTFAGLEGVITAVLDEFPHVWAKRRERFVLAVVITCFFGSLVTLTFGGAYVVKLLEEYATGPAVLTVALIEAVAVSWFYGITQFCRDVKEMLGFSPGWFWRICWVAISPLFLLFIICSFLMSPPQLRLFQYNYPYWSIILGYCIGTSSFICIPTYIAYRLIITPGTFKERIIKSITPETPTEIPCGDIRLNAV
T2 sequence (P21728 whole entry): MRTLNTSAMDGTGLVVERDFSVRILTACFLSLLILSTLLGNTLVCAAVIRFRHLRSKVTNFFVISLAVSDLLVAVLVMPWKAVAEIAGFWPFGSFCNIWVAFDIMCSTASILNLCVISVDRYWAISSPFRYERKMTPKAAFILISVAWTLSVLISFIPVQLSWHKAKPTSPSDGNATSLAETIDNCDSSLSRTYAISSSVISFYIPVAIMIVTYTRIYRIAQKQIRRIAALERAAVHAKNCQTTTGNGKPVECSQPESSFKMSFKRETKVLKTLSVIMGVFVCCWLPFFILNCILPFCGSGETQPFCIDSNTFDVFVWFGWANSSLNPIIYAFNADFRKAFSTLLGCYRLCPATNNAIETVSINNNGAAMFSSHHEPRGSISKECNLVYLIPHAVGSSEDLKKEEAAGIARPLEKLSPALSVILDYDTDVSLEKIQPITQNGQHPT
T1 sequence (P28223 whole entry): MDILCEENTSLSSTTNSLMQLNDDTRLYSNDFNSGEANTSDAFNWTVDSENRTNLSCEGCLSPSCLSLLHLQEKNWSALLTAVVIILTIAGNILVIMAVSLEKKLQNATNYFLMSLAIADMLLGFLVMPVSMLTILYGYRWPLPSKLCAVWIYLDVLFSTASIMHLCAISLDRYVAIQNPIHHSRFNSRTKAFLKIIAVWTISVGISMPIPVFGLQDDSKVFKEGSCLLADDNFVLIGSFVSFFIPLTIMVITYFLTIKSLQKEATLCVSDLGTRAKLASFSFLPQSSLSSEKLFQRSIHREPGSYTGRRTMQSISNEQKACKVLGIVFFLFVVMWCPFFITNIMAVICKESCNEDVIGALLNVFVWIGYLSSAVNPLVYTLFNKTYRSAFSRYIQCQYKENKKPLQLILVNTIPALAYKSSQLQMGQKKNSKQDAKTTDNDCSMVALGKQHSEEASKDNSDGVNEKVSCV
T4 sequence (P14416 1-414 isoform P14416-2): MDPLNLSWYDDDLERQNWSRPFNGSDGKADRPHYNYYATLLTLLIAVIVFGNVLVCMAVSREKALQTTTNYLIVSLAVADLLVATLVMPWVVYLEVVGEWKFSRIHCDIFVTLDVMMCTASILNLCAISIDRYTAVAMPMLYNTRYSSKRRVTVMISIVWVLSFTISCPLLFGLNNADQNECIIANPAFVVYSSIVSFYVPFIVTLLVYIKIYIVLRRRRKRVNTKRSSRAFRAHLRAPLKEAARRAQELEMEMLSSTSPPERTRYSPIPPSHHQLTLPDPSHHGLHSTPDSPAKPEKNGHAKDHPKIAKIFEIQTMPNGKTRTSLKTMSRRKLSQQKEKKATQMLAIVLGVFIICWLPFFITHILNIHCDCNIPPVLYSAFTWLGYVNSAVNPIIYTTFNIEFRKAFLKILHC

On to `[2H]C1([2H])C(=O)Nc2cccc3c2N1[C@H]1CCN(CCCOc2ccc(F)cc2)C[C@@H]31` [Example 1, (6bR,10aS)-1,1-d2-8-(3-(4-fluorophenoxy)propyl)-6b,7,8,9,10,10a-hexahydro-1H-pyrido[3′,4′:4,5]pyrrolo[1,2,3-de]quinoxalin-2(3H)-one], for which, in [1], the inhibition at 0.01 µM amounted to 64.7%. The inhibition at 0.1 µM on dopamine D1 receptor was determined as 36.6%. Also, the inhibition at 1 µM in [2] worked out at 34.5%. In addition, the inhibition at 0.3 µM at dopamine D2S receptor was 47.5%.
In the case of `[2H]C([2H])(Oc1ccc(F)cc1)C([2H])([2H])C([2H])([2H])N1CC[C@H]2[C@@H](C1)c1cccc3c1N2CC(=O)N3` [Example 2, (6bR,10aS)-8-(1,1,2,2,3,3-d6-3-(4-fluorophenoxy)propyl)-6b,7,8,9,10,10a-hexahydro-1H-pyrido[3′,4′: 4,5]pyrrolo[1,2,3-de]quinoxalin-2(3H)-one], in data set [3], the plasma concentration entry is recorded as “BLQ”. Further, in the data set “in vivo” (po, 10 mg/kg), the AUC was 3660 ng·h/mL, the concentration peaked (Cmax) at 64.6 ng/mL, the Tmax is 6 h and the concentration at 0.033 h was 1 ng/mL. In the data set “in vivo” (po, 10 mg/kg), this compound yielded a concentration at 0.083 h of 10.6 ng/mL, a concentration at 0.5 h of 55.7 ng/mL, a concentration at 1 h of 72.3 ng/mL and a concentration at 2 h of 143 ng/mL. Also, in the data set “in vivo” (po, 10 mg/kg), the concentration at 6 h is 260 ng/mL, the concentration at 8 h came out at 200 ng/mL, the concentration at 12 h turned out to be 196 ng/mL and the concentration at 24 h came out at 3 ng/mL. Further, the concentration at […] in the data set “in vivo” (po, 10 mg/kg) amounted to 56.9 ng/mL. Moreover, in the data set “in vivo” (sc, 3 mg/kg), the AUC was 492 ng·h/mL, the concentration peaked (Cmax) at 81.4 ng/mL, the Tmax stood at 1 h and the concentration at 0.033 h turned out to be 6 ng/mL. In “in vivo” (sc, 3 mg/kg), this compound yielded a concentration at 0.083 h of 27.5 ng/mL, a concentration at 0.5 h of 80 ng/mL, a concentration at 1 h of 81.4 ng/mL and a concentration at 2 h of 65.2 ng/mL. In addition, in the data set “in vivo” (sc, 3 mg/kg), the concentration at 6 h came out at 15 ng/mL, the concentration at 8 h came to 6.7 ng/mL, the concentration at 12 h worked out at 3.9 ng/mL and the concentration at 24 h was 2.1 ng/mL. In “in vivo” (sc, 3 mg/kg), this compound registered a concentration at 48 h of 2 ng/mL, a concentration at 72 h of 1 ng/mL and a concentration at […] of 48.2 ng/mL.
For `[2H]C([2H])(CC([2H])([2H])N1CC[C@H]2[C@@H](C1)c1cccc3c1N2CC(=O)N3)Oc1ccc(F)cc1` [Example 3, (6bR,10aS)-8-(1,1,3,3-d4-3-(4-fluorophenoxy)propyl)-6b,7,8,9,10,10a-hexahydro-1H-pyrido[3′,4′:4,5]pyrrolo[1,2,3-de]quinoxalin-2(3H)-one], in data set [1], the inhibition at 0.01 µM is 64.1%. Besides, the inhibition at 0.1 µM on dopamine D1 receptor stood at 36.3%. Also, in data set [2], the inhibition at 1 µM was determined as 31.8%. Also, the inhibition at 0.3 µM at dopamine D2S receptor is 55.1%.
Taken in the same sequence, the figures for `[2H]c1c([2H])c(OCCCN2CC[C@H]3[C@@H](C2)c2cccc4c2N3CC(=O)N4)c([2H])c([2H])c1F` [Example 6, (6bR,10aS)-8-(3-(2,3,5,6-tetradeuterio-4-fluorophenoxy)propyl)-6b,7,8,9,10,10a-hexahydro-1H-pyrido[3′,4′:4,5]pyrrolo[1,2,3-de]quinoxalin-2(3H)-one] were 60.2%, 32.6%, 29.1% and 48.7%.
As to `[2H]C([2H])(CCN1CC[C@H]2[C@@H](C1)c1cccc3c1N2CC(=O)N3)Oc1ccc(F)cc1` [Example 7, (6bR,10aS)-8-(3,3-dideuterio-3-(4-fluorophenoxy)propyl)-6b,7,8,9,10,10a-hexahydro-1H-pyrido[3′,4′:4,5]pyrrolo[1,2,3-de]quinoxalin-2(3H)-one], in [1], the inhibition at 0.01 µM worked out at 63.5%. In addition, the inhibition at 0.1 µM at dopamine D1 receptor came out at 34.8%. Moreover, the inhibition at 1 µM in data set [2] is 31.1%. The inhibition at 0.3 µM at dopamine D2S receptor is 53.3%.
For `[2H]c1c([2H])c(OC([2H])([2H])C([2H])([2H])C([2H])([2H])N2CC[C@H]3[C@@H](C2)c2cccc4c2N3C([2H])([2H])C(=O)N4)c([2H])c([2H])c1F` [Example 8, (6bR,10aS)-1,1-dideuterio-8-(1,1,2,2,3,3-hexadeuterio-3-(2,3,5,6-tetradeuterio-4-fluorophenoxy)propyl)-6b,7,8,9,10,10a-hexahydro-1H-pyrido[3′,4′:4,5]pyrrolo[1,2,3-de]quinoxalin-2(3H)-one], in data set [3], the plasma concentration entry is “BLQ”. For the same compound, in the data set “in vivo” (po, 10 mg/kg), the AUC came out at 3390 ng·h/mL, the concentration peaked (Cmax) at 68.4 ng/mL, the Tmax stood at 6 h and the concentration at 0.033 h turned out to be 1.3 ng/mL. In “in vivo” (po, 10 mg/kg), this compound had a concentration at 0.083 h of 8.6 ng/mL, a concentration at 0.5 h of 45.8 ng/mL, a concentration at 1 h of 62.4 ng/mL and a concentration at 2 h of 133 ng/mL. In “in vivo” (po, 10 mg/kg), this compound yielded a concentration at 6 h of 245 ng/mL, a concentration at 8 h of 187 ng/mL, a concentration at 12 h of 181 ng/mL and a concentration at 24 h of 3.3 ng/mL. Further, the concentration at […] in the data set “in vivo” (po, 10 mg/kg) amounted to 46.7 ng/mL. In the data set “in vivo” (sc, 3 mg/kg), the AUC was found to be 494 ng·h/mL, the peak level (Cmax) was 78.9 ng/mL, the Tmax was 1 h and the concentration at 0.033 h turned out to be 5.7 ng/mL. In “in vivo” (sc, 3 mg/kg), the concentration at 0.083 h stood at 25.7 ng/mL, the concentration at 0.5 h is 76.4 ng/mL, the concentration at 1 h was found to be 78.9 ng/mL and the concentration at 2 h is 62.9 ng/mL. In “in vivo” (sc, 3 mg/kg), this compound came in with a concentration at 6 h of 14.1 ng/mL, a concentration at 8 h of 6.5 ng/mL, a concentration at 12 h of 4.1 ng/mL and a concentration at 24 h of 2.1 ng/mL. Also, in the data set “in vivo” (sc, 3 mg/kg), the concentration at 48 h came out at 2.4 ng/mL, the concentration at 72 h came to 1.4 ng/mL and the concentration at […] is 46 ng/mL.
For `[2H]C1([2H])C(=O)Nc2cccc3c2N1[C@H]1CCN(C([2H])([2H])C([2H])([2H])C([2H])([2H])Oc2ccc(F)cc2)C[C@@H]31` [Example 9, (6bR,10aS)-1,1-dideuterio-8-(1,1,2,2,3,3-hexadeuterio-3-(4-fluorophenoxy)-propyl)-6b,7,8,9,10,10a-hexahydro-1H-pyrido[3′,4′:4,5]pyrrolo[1,2,3-de]quinoxalin-2(3H)-one], the inhibition at 0.01 µM in data set [1] was found to be 60.1%. In addition, the inhibition at 0.1 µM at dopamine D1 receptor is 35.2%. Moreover, the inhibition at 1 µM in [2] is 28.4%. In addition, the inhibition at 0.3 µM on dopamine D2S receptor was 49.6%.
`O=C1CN2c3c(cccc3[C@@H]3CN(CCCOc4ccc(F)cc4)CC[C@@H]32)N1` [Formula A]: in data set [1], the inhibition at 0.01 µM amounted to 63%. Moreover, the inhibition at 0.1 µM at dopamine D1 receptor turned out to be 43.4%. In [4], the “effect on ERK2 phosphorylation” value is recorded as “marginal effects”, the “effect on GluR1 phosphorylation” value was “marginal effects”, the “effect on NR2B phosphorylation” value is listed as “neither the compound of Formula A nor the compound of Formula B has a significant effect” and the “effect on TH phosphorylation” value was “neither the compound of Formula A nor the compound of Formula B has a significant effect”. Besides, the inhibition at 1 µM in [2] came to 33.4%. The inhibition at 0.3 µM on dopamine D2S receptor was found to be 53.6%. Further, the “EC50 blocking DOI-induced head twitch” value in data set [5] is 0.44 mg/kg, p.o. The “early phase acute pain response and late phase delayed inflammatory response” value in the data set on mouse formalin paw test was “dose-dependently attenuates both the early phase acute pain response and the late phase delayed inflammatory response”.
On to `O=C1CN2c3c(cccc3[C@@H]3CN(CCCC(=O)c4ccc(F)cc4)CC[C@@H]32)N1` [Formula B, 4-((6bR,10aS)-2-oxo-2,3,6b,9,10,10a-hexahydro-1H,7H-pyrido[3′,4′:4,5]pyrrolo[1,2,3-de]quinoxalin-8-yl)-1-(4-fluoro-phenyl)-butan-1-one], for which, in data set [4], the “effect on ERK2 phosphorylation” value was “marginal effects”, the “effect on GluR1 phosphorylation” value was “marginal effects”, the “effect on NR2B phosphorylation” value is listed as “neither the compound of Formula A nor the compound of Formula B has a significant effect” and the “effect on TH phosphorylation” value is on record as “neither the compound of Formula A nor the compound of Formula B has a significant effect”. Besides, the “EC50 blocking DOI-induced head twitch” value in data set [5] was 0.23 mg/kg, p.o.
As for `Cc1cccc(C#Cc2ccccc2)n1` [MPEP, 2-methyl-6-(phenylethynyl)pyridine], in [6], the “Marbles Buried” value is reported as 0.2.
On to `CN1CC[C@]23c4c5ccc(O)c4O[C@H]2[C@@H](O)C=C[C@H]3[C@H]1C5` [Morphine, reference compound], for which, in the data set on male Sprague-Dawley rats, the “tolerance during repeated dosing” value was “clear signs of tolerance and dependence”; the “physical dependence upon cessation of dosing” value was “clear signs of tolerance and dependence”.
`O=C(CCCN1CCC(O)(c2ccc(Cl)cc2)CC1)c1ccc(F)cc1` [haloperidol]: in [4], the “increase in TH phosphorylation” value is 400-500%.
For the compound “(6bR,10aS)-8-(1,1,3,3-d4-3-(4-fluorophenoxy)propyl)-6b,7,8,9,10,10a-hexahydro-1H-pyrido[3′,4′:4,5]pyrrolo[1,2,3-de]quinoxalin-2(3H)-one [Example 3]”, in the data set on male Sprague-Dawley rats, the “tolerance during repeated dosing” value is on record as “does not produce tolerance” and the “physical dependence upon cessation of dosing” value is reported as “not to produce a syndrome of physical dependence”.

The record behind these values is patent US12364694B2 (priority 2018, dated 2025).
